Test results: patent US20240197762A1, “NUTRITIONAL COMPOSITION FOR STIMULATIONG BIFIDOBACTERIA” (FrieslandCampina Nederland B.V., priority 2021, published 2024)

System: bifidobacteria (B. adolescentis and B. longum)
Test: Fecal fermentations simulating the distal colon of elderly (microMatrix, shotgun metagenomics)
Type: cell-based, human (pool of fecal material of healthy 70+ human subjects)
Settings: oligosaccharides at 0.5 wt % final concentration, 7 hours of fermentation, pH 6.8, 37° C., compared to the blanc; FIG. 1
Procedure: Fecal fermentations were performed in a 24 well plate using the microMatrix™ (Applikon Biotechnology) as described in M. M. O'Donnell et al., Front. Microbiol., vol. 9, Aug. 10, 2018, article 1844. The wells were filled in the anaerobic chamber with medium (composition: see Table 1) to which the oligosaccharides GOS (Biotis™ GOS ex-FrieslandCampina), 2′-FL (Aequival™ 2′-FL, ex-FrieslandCampina), or mixtures thereof were added at a final concentration of 0 (blanc) or 0.5 wt % (every condition in duplicate). The plate was put in the microMatrix™ for about 20 minutes to reduce the dissolved oxygen concentration to below 5% and to increase the temperature of the medium to 37° C. After these 20 minutes, the plate was inoculated with a pool of fecal material of healthy 70+ human subjects and fermentations were started. During the fermentations, the pH of was controlled at pH 6.8 with a dead zone of 0.1 using ammonium gas and CO2. The plates were orbitally shaken at 300 rpm. Mixed gas (CO2/H2/N2: 10/5/85) was used to keep the cultures anaerobic during fermentation. After 7 hours of fermentation a sample of 1 ml was taken. Fecal samples of eight healthy elderly were included in the pool. […]

2′-fucosyllactose [2′-FL] was tested, and the “relative abundance of B. adolescentis and B. longum and their combined amount, relative to total bacteria content” value was “increased”.
